Patent publication US8404677B2, “Kinase inhibitors” (Genosco, priority 2009, dated 2013)
Where a name gives a salt, the structure may show the parent alone.

Key:
truncated human FLT3 = target: T1, truncated human FLT3 (Homo sapiens, UniProt P36888); experiment: Inhibition of enzymatic kinase activity (LANCE Ulight); type: biochemical
T1 construct: truncated human FAK, RET, FLT3, JAK2, and LRRK2 (CARNA BIOSCIENCES™); purchased Carna Biosciences
T1 sequence (P36888 564-993 limits assumed): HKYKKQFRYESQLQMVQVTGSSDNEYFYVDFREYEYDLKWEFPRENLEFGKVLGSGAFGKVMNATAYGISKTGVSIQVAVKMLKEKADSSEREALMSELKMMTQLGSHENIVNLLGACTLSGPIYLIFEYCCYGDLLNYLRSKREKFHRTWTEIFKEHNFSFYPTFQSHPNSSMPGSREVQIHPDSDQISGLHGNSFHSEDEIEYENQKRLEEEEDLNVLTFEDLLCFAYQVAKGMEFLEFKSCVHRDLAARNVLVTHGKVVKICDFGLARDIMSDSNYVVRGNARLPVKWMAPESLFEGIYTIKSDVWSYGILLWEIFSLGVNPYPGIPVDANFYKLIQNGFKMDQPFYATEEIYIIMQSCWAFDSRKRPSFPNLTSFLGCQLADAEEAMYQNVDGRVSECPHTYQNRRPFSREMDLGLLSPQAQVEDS
Description: (§1) Inhibition of Enzymatic SYK, ZAP70, PYK2, FAK, PIM1, RET, FLT3, JAK2 and LRRK2 Kinase Activity
(§2) Compounds of the invention were initially diluted to 10 mM in 100% DMSO (CALBIOCHEM™) for storage and made into kinase buffer solution to create a compound concentration ranging from 1 uM and 10 uM. Serial dilutions of compounds of the invention were dispensed into a 96-well plate (GREINER BIOSCIENCES™) at 6 μL each. Purified full-length human SYK, ZAP70, PIM1, PYK2 and truncated human FAK, RET, FLT3, JAK2, and LRRK2 (CARNA BIOSCIENCES™) were diluted in kinase buffer and added to the compound solutions and pre-incubated for 30 minutes at room temperature (1 hour for PYK2). […] The reaction mixture was incubated for 1 hour (2 hours for PYK2). Following the incubation, the stop solution made with EDTA, water, and Lance detection buffer ([…]™) was added (12 μL each) to stop phosphorylation.

truncated human JAK2 = target: T2, truncated human JAK2 (Homo sapiens, UniProt O60674); experiment: as above; type: biochemical
T2 construct: truncated human FAK, RET, FLT3, JAK2, and LRRK2 (CARNA BIOSCIENCES™); purchased Carna Biosciences
T2 sequence (O60674 826-1132 limits assumed): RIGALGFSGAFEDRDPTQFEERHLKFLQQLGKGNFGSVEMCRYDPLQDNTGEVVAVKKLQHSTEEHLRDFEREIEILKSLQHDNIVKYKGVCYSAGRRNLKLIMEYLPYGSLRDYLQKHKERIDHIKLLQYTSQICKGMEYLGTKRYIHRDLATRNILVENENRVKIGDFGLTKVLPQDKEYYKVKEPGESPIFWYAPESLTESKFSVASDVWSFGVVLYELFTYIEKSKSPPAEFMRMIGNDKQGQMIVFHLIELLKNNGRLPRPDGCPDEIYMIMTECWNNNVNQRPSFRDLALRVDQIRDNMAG
Description: as §1, §2

truncated human RET = target: T3, truncated human RET (Homo sapiens, UniProt P07949); experiment: as above; type: biochemical
T3 construct: truncated human FAK, RET, FLT3, JAK2, and LRRK2 (CARNA BIOSCIENCES™); purchased Carna Biosciences
T3 sequence (P07949 658-1114 limits assumed): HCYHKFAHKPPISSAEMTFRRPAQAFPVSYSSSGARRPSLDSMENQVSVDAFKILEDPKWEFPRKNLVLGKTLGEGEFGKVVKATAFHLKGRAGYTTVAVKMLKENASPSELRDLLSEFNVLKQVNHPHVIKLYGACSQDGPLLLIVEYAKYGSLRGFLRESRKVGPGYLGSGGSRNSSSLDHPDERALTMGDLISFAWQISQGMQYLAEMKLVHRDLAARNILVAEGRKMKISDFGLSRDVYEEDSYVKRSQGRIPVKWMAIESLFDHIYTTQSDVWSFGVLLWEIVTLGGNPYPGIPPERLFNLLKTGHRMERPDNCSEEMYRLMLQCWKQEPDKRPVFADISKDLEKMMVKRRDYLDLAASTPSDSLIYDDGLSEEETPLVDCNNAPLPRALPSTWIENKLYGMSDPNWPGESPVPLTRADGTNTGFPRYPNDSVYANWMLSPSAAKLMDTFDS
Description: as §1, §2

MTC-TT = experiment: Cell viability assay: RET inhibition; type: cell-based, human; conditions: for IC50: Homo sapiens, 48 h, two days after drug treatment; for inhibition level compared with Vandetinib and Sunitinib: RET induced cancer cell line
Description: In order to address RET dependent cell viability, the medullary thyroid carcinoma cell line, MTC-TT representing MEN2A was utilized to test compounds of the invention. MTC-TT were cultured at RPMI containing 15 bovine calf serum (Hyclon™ of Thermo™) and supplemented with 2 mM L-Glutamine. The cells were grown at a density of 5×10^4 cells/100 μL/well in duplicate in 96-well plates for one day and treated with different concentrations of test compound. Cell viability for MTC-TT two days after drug treatment was measured by Cell Titer 96 Aqueous One Solution Reagent (Promega™) according to the manufacture instructions. The IC50 value of test compound was calculated at Gradpad Prism 5 unless specified otherwise.

[1] = test system: MV4-11 cells expressing human FLT3-ITD; experiment: Cell viability assay: FLT3-ITD-positive cells; type: cell-based; conditions: for inhibition level compared with Vandetinib and Sunitinib: FLT3 ITD induced cancer cell line; for IC50: Homo sapiens, 72-hour incubation, read-out: MV-4-11 cell viability IC50
Description: Compounds of the invention were tested for cell viability effect on MV4-11 cells. For cell viability assay, MV4-11 cells expressing human FLT3-ITD were obtained from the American Type Culture Collection (ATCC, Manassas, Va.). This cell line was maintained with an Roswell Park Memorial Institute (RPMI) medium (HyClone™) containing 10 bovine calf serum (BCS; Hyclone™) supplemented iron. […] CellTiter Aqueous assay (Promega™) was also performed in parallel as an orthogonal assay. IC50 values were calculated using nonlinear regression and defined as the concentration needed for a 50 reduction in luminescence or absorbance treated versus untreated control cells (Prism™ Software).

human ZAP70 = target: T4, human ZAP70 (Homo sapiens, UniProt P43403); experiment: Inhibition of enzymatic kinase activity (LANCE Ulight); type: biochemical; conditions: at 1 μM concentration; for inhibition at 1 µM: read-out: ZAP70 percentage inhibition
T4 construct: Purified full-length human SYK, ZAP70, PIM1, PYK2; purchased Carna Biosciences
T4 sequence (P43403 1-619): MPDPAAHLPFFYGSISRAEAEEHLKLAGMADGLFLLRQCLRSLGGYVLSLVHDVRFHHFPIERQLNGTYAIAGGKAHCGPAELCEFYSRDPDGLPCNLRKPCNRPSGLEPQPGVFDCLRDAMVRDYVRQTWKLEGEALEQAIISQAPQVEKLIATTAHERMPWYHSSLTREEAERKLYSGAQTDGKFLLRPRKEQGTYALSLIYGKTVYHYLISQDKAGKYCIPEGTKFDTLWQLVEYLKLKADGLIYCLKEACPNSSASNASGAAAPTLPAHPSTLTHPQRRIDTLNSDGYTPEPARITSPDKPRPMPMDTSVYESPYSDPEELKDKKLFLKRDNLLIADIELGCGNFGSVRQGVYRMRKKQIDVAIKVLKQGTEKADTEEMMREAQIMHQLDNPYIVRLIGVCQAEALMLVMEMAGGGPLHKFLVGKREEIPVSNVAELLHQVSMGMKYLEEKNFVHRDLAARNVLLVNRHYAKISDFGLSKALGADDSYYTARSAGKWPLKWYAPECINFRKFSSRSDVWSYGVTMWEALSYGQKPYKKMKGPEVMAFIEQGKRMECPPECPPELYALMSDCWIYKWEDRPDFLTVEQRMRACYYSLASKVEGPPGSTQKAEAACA
Description: as §1, §2

truncated human FAK = target: T5, truncated human FAK (Homo sapiens, UniProt Q05397); experiment: as above; type: biochemical; conditions: at 1 μM concentration; for inhibition at 1 µM: read-out: FAK percentage inhibition
T5 construct: truncated human FAK, RET, FLT3, JAK2, and LRRK2 (CARNA BIOSCIENCES™); purchased Carna Biosciences
T5 sequence (Q05397 376-1052 limits assumed): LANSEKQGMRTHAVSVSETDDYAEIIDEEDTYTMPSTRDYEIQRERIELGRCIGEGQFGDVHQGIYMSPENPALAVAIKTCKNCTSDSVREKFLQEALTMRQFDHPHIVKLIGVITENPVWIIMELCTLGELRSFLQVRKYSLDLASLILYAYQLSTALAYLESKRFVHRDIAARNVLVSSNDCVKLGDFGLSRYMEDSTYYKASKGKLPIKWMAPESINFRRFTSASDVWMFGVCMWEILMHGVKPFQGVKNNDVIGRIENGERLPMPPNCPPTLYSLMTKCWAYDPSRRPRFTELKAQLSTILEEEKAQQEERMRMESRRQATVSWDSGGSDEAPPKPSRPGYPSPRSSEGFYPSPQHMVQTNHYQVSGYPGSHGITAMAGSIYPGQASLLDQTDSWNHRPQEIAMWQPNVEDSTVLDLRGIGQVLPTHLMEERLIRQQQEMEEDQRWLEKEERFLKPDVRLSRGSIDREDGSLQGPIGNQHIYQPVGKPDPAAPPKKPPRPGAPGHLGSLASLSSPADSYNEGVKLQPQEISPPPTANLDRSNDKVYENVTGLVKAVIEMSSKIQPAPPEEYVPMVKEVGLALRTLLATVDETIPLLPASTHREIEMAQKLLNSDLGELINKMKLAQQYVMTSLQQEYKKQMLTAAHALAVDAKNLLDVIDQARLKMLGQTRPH
Description: as §1, §2

human PIM1 = target: T6, human PIM1 (Homo sapiens, UniProt P11309); experiment: as above; type: biochemical; conditions: at 1 μM concentration; for inhibition at 1 µM: read-out: PIM1 percentage inhibition
T6 construct: Purified full-length human SYK, ZAP70, PIM1, PYK2; purchased Carna Biosciences
T6 sequence (P11309 whole entry): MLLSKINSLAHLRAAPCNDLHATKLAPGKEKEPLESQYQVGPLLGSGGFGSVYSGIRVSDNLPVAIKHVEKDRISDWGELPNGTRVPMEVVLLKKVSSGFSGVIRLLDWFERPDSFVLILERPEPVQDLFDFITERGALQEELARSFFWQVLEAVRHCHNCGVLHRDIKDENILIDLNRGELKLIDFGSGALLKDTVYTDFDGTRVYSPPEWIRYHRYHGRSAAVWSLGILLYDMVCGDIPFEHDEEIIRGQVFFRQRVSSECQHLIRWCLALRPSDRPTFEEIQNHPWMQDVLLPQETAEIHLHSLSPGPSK
Description: as §1
as §2, with “phosphorylation. […] Substrate phosphorylation was a function of the 665 nm emission measured following the addition of the detection solution and 50 minutes of incubation.” for “phosphorylation.”

PYK2 = PYK2 (Homo sapiens, UniProt Q14289); experiment: as above; type: biochemical; design: Purified full-length human SYK, ZAP70, PIM1, PYK2; purchased Carna Biosciences; conditions: at 1 μM concentration; for inhibition at 1 µM: read-out: PYK2 percentage inhibition
PYK2, sequence (Q14289 whole entry): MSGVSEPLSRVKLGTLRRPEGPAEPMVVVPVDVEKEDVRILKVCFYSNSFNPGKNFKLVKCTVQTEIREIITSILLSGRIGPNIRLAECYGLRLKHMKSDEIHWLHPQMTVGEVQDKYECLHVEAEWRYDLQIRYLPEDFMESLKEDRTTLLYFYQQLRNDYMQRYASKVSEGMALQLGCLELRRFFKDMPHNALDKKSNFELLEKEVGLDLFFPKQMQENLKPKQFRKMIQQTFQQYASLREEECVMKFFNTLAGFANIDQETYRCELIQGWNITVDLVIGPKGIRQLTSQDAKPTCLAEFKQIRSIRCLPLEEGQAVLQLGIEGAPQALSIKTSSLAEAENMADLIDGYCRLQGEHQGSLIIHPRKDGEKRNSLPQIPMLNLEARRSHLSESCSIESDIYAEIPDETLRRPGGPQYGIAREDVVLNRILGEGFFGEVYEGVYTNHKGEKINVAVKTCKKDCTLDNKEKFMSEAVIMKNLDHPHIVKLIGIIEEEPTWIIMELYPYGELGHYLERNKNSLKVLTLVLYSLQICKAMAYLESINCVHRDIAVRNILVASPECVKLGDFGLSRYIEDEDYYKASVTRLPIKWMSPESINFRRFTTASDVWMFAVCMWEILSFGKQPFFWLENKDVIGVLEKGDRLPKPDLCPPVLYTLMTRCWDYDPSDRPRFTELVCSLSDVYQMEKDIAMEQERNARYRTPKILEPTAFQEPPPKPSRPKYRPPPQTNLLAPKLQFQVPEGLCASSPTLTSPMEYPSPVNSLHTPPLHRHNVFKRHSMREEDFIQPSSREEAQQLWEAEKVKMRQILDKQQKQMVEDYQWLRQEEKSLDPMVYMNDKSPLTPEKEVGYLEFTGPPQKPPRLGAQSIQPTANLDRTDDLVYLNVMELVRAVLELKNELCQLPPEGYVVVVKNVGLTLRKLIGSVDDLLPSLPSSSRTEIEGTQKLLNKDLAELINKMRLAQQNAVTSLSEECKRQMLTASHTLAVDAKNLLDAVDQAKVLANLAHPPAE
Description: as §1, §2

SYK = SYK (Homo sapiens, UniProt P43405); experiment: as above; type: biochemical; design: Purified full-length human SYK, ZAP70, PIM1, PYK2; purchased Carna Biosciences; conditions: at 1 μM concentration; for inhibition at 1 µM: read-out: SYK percentage inhibition
Description: as §1, §2

[2] = test system: HEL cells expressing human JAK2 V617F; experiment: Cell viability assay: JAK2 inhibition; type: cell-based; conditions: Homo sapiens, 72-hour incubation
Description: Compounds of the invention were tested for cell viability effect on HEL cells. For cell viability assay, HEL cells expressing human JAK2 V617F were obtained from the American Type Culture Collection (ATCC, Manassas, Va.). This cell line was maintained with an Roswell Park Memorial Institute (RPMI) medium (HyClone™) containing 10 bovine calf serum (BCS; Hyclone™) supplemented iron. The HEL cells were seeded at 2×10^4 cells in 96 well culture plates, and serially diluted compound was then added. After a 72-hour incubation period at 37° C., Cell viability was measured using the ATPLite 1 step assay (Perkin-Elmer™) that is based on the quantification of ATP from viable cells. CellTiter Aqueous assay (Promega™) was also performed in parallel as an orthogonal assay. IC50 values were calculated using nonlinear regression and defined as the concentration needed for a 50 reduction in luminescence or absorbance treated versus untreated control cells (Prism™ Software).

Row | Compound | IC50 (MTC-TT) [nM] | IC50 ([1]; MV4-11) [nM] | inhibition at 1 µM (human ZAP70) [%] | inhibition at 1 µM (truncated human FAK) [%] | inhibition at 1 µM (human PIM1) [%] | inhibition at 1 µM (PYK2) [%] | inhibition at 1 µM (SYK) [%] | also measured
1 | Cl.O=c1[nH]ccc2nc(N[C@H]3CCNC3)nc(Nc3ccc(C(F)(F)F)cc3)c12 [Compound 8, (S)-2-(pyrrolidin-3-ylamino)-4-(4-(trifluoromethyl)phenylamino)pyrido[4,3-d]pyrimidin-5(6H)-one hydrochloride] | 14 | 0.1 |  |  |  |  |  | IC50 (truncated human FLT3): 0.2 nM; IC50 (truncated human JAK2): 12.7 nM; IC50 (truncated human RET): 2.6 nM; times higher inhibition in IC50 than Vandetanib and Sunitinib (MTC-TT; MTC-TT): 6 time; inhibition level compared with Vandetinib and Sunitinib (MTC-TT): inhibition level greater than those exhibited by Vandetinib and Sunitinib; inhibition level compared with Vandetinib and Sunitinib [1]: inhibition level greater than those exhibited by Vandetinib and Sunitinib; times higher inhibition in IC50 than Sunitinib and PKC-412 ([1]; MV4-11): 10-30 time
2 | NC1CCN(c2nc(Nc3cccc(Br)c3)c3c(=O)[nH]ccc3n2)CC1 [Compound 84, 2-(4-aminopiperidin-1-yl)-4-(3-bromophenylamino)pyrido[4,3-d]pyrimidin-5(6H)-one hydrochloride] |  |  | 54.6 | 92.9 | 71.2 | 92.8 | 95.7 | 
3 | CS(=O)(=O)c1ccc(Nc2nc(N3CCC(O)CC3)nc3cc[nH]c(=O)c23)cc1 [Compound 126, 2-(4-hydroxypiperidin-1-yl)-4(4-(methylsulfonyl)phenylamino)pyrido[4,3d]pyrimidin-5(6H)-one] |  |  | 49.3 | 80.8 | 12.7 | 39.5 | 95.1 | 
4 | Cl.O=c1[nH]ccc2nc(N[C@H]3CCNC3)nc(Nc3ccc(N4CCOCC4)cc3)c12 [Compound 136, (S)-4-(4-morpholinophenylamino)-2-(pyrrolidin-3-ylamino)pyrido[4,3-d]pyrimidin-5(6H)-one hydrochloride] | 33 | 0.1 |  |  |  |  |  | IC50 (truncated human FLT3): 0.1 nM; IC50 (truncated human JAK2): 3.9 nM; IC50 (truncated human RET): 1.3 nM; inhibition level compared with Vandetinib and Sunitinib (MTC-TT): inhibition level greater than those exhibited by Vandetinib and Sunitinib; inhibition level compared with Vandetinib and Sunitinib [1]: inhibition level greater than those exhibited by Vandetinib and Sunitinib
5 | Cn1ccc2nc(N3CCC(O)CC3)nc(Nc3cccc(C(F)(F)F)c3)c2c1=O [Compound 168, 2-(4-hydroxypiperidine-1-yl)-6-methyl-4-(3-(trifluoromethyl)phenylamino)pyrido[4,3-d]pyrimidin-5(6H)-one] |  |  | 6.2 | 4.9 | 7.3 | 1 | 3 | 
6 | CNC(=O)c1cc(Oc2ccc(NC(=O)Nc3ccc(Cl)c(C(F)(F)F)c3)cc2)ccn1 [Sorafenib, reference compound] |  |  |  |  |  |  |  | IC50 [2]: > 1000 nM
7 | CCN(CC)CCNC(=O)c1c(C)[nH]c(/C=C2\C(=O)Nc3ccc(F)cc32)c1C [Sunitinib, reference compound] | 117 | 3.8 |  |  |  |  |  | 
8 | (2-((1R,2S)-2-aminocyclohexylamino)-4-(3-(trifluoromethyl)phenylamino)pyrido[4,3-d]pyrimidin-5(6H)-one with (2-((1S,2R)-2-aminocyclohexylamino)-4-(3-(trifluoromethyl)phenylamino)pyrido[4,3-d]pyrimidin-5(6H)-one [Compound 101] |  |  |  |  |  |  |  | ZAP70 percentage inhibition (human ZAP70): 45%; FAK percentage inhibition (truncated human FAK): 77%; PIM1 percentage inhibition (human PIM1): 61%; PYK2 percentage inhibition (PYK2): 85%; SYK percentage inhibition (SYK): 90%
